# Assay results from patent US11345696B2, “Compounds and methods of treating or ameliorating an IL-1R-mediated disease or disorder using same” (DREXEL UNIVERSITY, priority 2014, dated 2022).
# Columns and labels:
# [1] = test system: normal fibroblasts stimulated with bleomycin; assay: Bleomycin induced fibrosis in vitro model: normal fibroblasts stimulated with bleomycin, hydroxyproline in culture media; type: cell-based; settings: for IC50: Fibroblast, decreasing concentrations of compound against 10 μM bleomycin, 48 h, hydroxyproline in culture media (FIG. 9); for blocking collagen synthesis: in vitro, normal fibroblasts stimulated with 10 μM bleomycin
# Description: FIG. 7 is a set of bar graphs illustrating the finding that compounds of the invention are effective against bleomycin induced fibrosis in an in vitro model. Top graph: normal fibroblasts stimulated with bleomycin (Bleo)+IL-1RA (n=3); bottom graph: normal fibroblasts stimulated with Bleo+KA862 (n=3).
# FIG. 9 is a set of graphs illustrating the IC50 determination for KA521, KA222, KA306, and KA695. Decreasing concentrations of compound were tested against 10 μM bleomycin for 48 h and hydroxyproline measured in the culture media.
# Without wishing to be limited by any theory, designing a focused screening library allows for the identification of analogs with favorable drug-like properties and binding efficacy against IL-1R. Compounds of interest may be tested in vitro using patient-derived scleroderma fibroblasts, normal fibroblasts treated with bleomycin to increase collagen synthesis, and in vivo in scleroderma animal models.
# FIG. 7 illustrates the finding that compounds of the invention are effective against bleomycin induced fibrosis. Normal fibroblasts were treated with bleomycin and either IL-1RA or a compound of the invention, so as to inhibit collagen.
# SSc fibroblasts = assay: Total collagen (hydroxyproline) in culture media of SSc fibroblasts; type: cell-based; settings: for total collagen secretion into the culture media as measured by hydroxyproline: SSc dermal fibroblasts, 48 h, 100 μM or 10 μM compound (FIG. 5); for blocking collagen synthesis: in vitro, fibroblasts derived from scleroderma patients
# Description: FIG. 5 is a set of graphs illustrating target validation studies. […] SSc dermal fibroblasts were treated for 48 h with 100 μM or 10 μM of compound, then media was collected and total collagen was measured by hydroxyproline. Samples were tested in triplicate across different patient samples and expressed as the mean±SEM (n=4). *p<0.0001, **p=0.02.
# SSc fibroblasts were treated for 48 h with 1 nM compound, and then culture media was recovered and hydroxyproline was measured. Samples were tested in triplicate across different patient samples and expressed as the mean±SEM (n=3 independent patient samples).
# SSc fibroblasts were cultured with selected molecules of the invention, and total collagen synthesis was assessed with hydroxyproline. […] KA862 and KA494 were selected for further in vitro evaluation.
SMILES,IC50 [1],total collagen secretion into the culture media as measured by hydroxyproline (SSc fibroblasts),blocking collagen synthesis (SSc fibroblasts),blocking collagen synthesis [1]
"Cc1nn(-c2ccccc2)c2c1C(c1c(O)ccc3ccccc13)C(C#N)=C(N)O2 (stereo not drawn) [KA222, 6-amino-4-(2-hydroxynaphthalen-1-yl)-3-methyl-1-phenyl-1,4-dihydropyrano[2,3-c]pyrazole-5-carbonitrile]",~1 nM,–,–,–
"COC(=O)C1=C(C)NC2=C(C(=O)CC(c3ccc(OC)c(OC)c3)C2)C1c1cccc2ccccc12 (stereo not drawn) [KA306, methyl 7-(3,4-dimethoxyphenyl)-2-methyl-4-(naphthalen-1-yl)-5-oxo-1,4,5,6,7,8-hexahydroquinoline-3-carboxylate]",~1 nM,–,–,–
"O=C(CN(Cc1ccc2c(c1)OCO2)S(=O)(=O)c1ccc(S(=O)(=O)NC2CCCC2)cc1)Nc1ccccc1 [KA199, N^2-(1,3-benzodioxol-5-ylmethyl)-N^2-{[4-(cyclopentylsulfamoyl)phenyl]sulfonyl}-N-phenyl glycinamide]",–,effective at reducing total collagen secretion,–,–
"COCCOC(=O)C1=C(C)NC2=C(C(=O)CCC2)C1c1cccc2ccccc12 (stereo not drawn) [KA695, 2-methoxyethyl 2-methyl-4-(naphthalen-1-yl)-5-oxo-1,4,5,6,7,8-hexahydroquinoline-3-carboxylate]",~1 nM,–,–,–
"O=C(C[S+]([O-])CC(=O)N(CC(=O)NC1CCCCC1)c1cccc2ccccc12)Nc1ccc(F)cc1 (stereo not drawn) [KA494, N-(2-(cyclohexylamino)-2-oxoethyl)-2-((2-((4-fluorophenyl)amino)-2-oxoethyl)sulfinyl)-N-(naphthalen-1-yl)acetamide]",–,effective at reducing total collagen secretion,efficacious in blocking collagen synthesis,efficacious in blocking collagen synthesis
"COc1cccc(NC(=O)Cn2nc(-c3ccncc3)nc2SCC(=O)NC2CCCC2)c1 [KA529, (2-[5-{[2-(cyclopentylamino)-2-oxoethyl]sulfanyl}-3-(4-pyridinyl)-1H-1,2,4-triazol-1-yl]-N-(3-methoxyphenyl)acetamide)]",–,effective at reducing total collagen secretion,–,–
"O=C(C[S+]([O-])CC(=O)N(CC(=O)NC1CCCC1)Cc1ccccc1Cl)Nc1ccc2c(c1)OCO2 (stereo not drawn) [KA680, (N^2-({[2-(1,3-benzodioxol-5-ylamino)-2-oxoethyl]sulfinyl}acetyl)-N^2-(2-chlorobenzyl)-N-cyclopentylglycinamide)]",–,effective at reducing total collagen secretion,–,–
"O=C(CSc1nnc(Cc2csc(Nc3cccc(Cl)c3)n2)n1Cc1ccco1)OC1CCCCC1 [KA862, cyclohexyl 2-((5-((2-((3-chlorophenyl)amino)thiazol-4-yl)methyl)-4-(furan-2-ylmethyl)-4H-1,2,4-triazol-3-yl)thio)acetate]",–,effective at reducing total collagen secretion,efficacious in blocking collagen synthesis,efficacious in blocking collagen synthesis
